Structures can show the parent of a compound that is named as a salt.
How the values were obtained:
[1] = target: T1, human vasopressin V1a receptor (Homo sapiens, UniProt P37288); test: Functional assay on human vasopressin V1a receptor expressing cell line (intracellular Ca2+ fluorescence); format: cell-based; details: 1321N1 cells, (Arg8)-vasopressin at EC80; read-out: IC50 (nM) on hV1a cell line
Protocol: Functional Assay to Test Compounds on Human Vasopressin V1a Receptor Expressing Cell Line
The ordinary secondary messenger pathway of the measured GPCR receptor was used, the endogenous Gq-associated system.
Using 30,000 cells/plate, compounds were measured on 96-well plates. The buffer composition of the measurements was the following (expressed in mM): 140 NaCl, 5 KCl, 2 CaCl2), 2 MgCl2, 10 glucose, 10 HEPES (4-(2-hydroxyethyl)-1-piperazine-ethanesulfonic acid), 2 probenecid, pH=7.4. FLIPR Calcium 5 kit (Molecular Devices) was used as fluorescent dye, the medium was not removed prior to filling with the dye and the cells were not washed out either before or after. The incubation was performed at room temperature, the final concentration of DMSO was 1%. The materials to be measured were administered in 15 to 20 minutes pretreatment, at least two parallels of each compound in each concentration was measured.
Fluorescence signal was used to determine the intracellular Ca^2+ level, the reader was FlexStation II96. […] The fluorescence signal was logged in every 1.4 seconds for 1 minute. The reference compounds used were the following: (Arg^8)-vasopressin as agonist at concentration of EC80, determined for each plate, and relcovaptan as antagonist at 1 μM. The % of inhibition at each concentration and the IC50 value of the compounds were determined where a concentration line was also measured.
The total AVP concentration-response curve was recorded on each plate. The effect of compounds measured was expressed by percentage of relative inhibition compared to control response. […] The average IC50 values were calculated from at least three independent measurements in all cases.

[2] = target: T1, human vasopressin V1a receptor; test: Human vasopressin V1a receptor binding assay; details: 1321N1 cell membranes, [3H]vasopressin; read-out: Ki (nM) on hV1a cell line
Protocol: Human Vasopressin V1a Receptor Binding Assay
Cells were suspended in preparative buffer (50 mM Tris, 1 mM EDTA, 0.1 mM PMSF) and homogenized with glass homogenizing potter. To separate the raw membrane fraction two consecutive centrifugation procedures (40,000 g for 20 minutes at 4° C.) were executed, then the membrane was taken into the preparatory buffer during a final washing step, it was divided into aliquots which were stored at −80° C. until the time of measurement.
To determine the final affinity value, the results of at least two independent experiments were taken into account.
Non-specific binding values were determined in the presence of unlabeled 1.2×10^−6 M (Arg^8)-vasopressin. Samples were incubated in a total volume of 0.33 ml for 60 minutes at 27° C. Membrane-bound and free ligands were separated by filtration through a 0.5% polyethyleneimine-impregnated UniFilter® GF/B™. After drying the filter plates, 40 μl Microscint-20 (Packard) scintillation cocktail was added to the samples. Finally, radioactivity was measured using MicroBeta^2 Microplate Counter (Perkin Elmer).
During fitting, the asymptotes are not fixed. The K values (inhibition constant) are given with Cheng-Prusoff equation Ki=IC50/[1+(L/KD)] wherein [L] is the radioligand concentration used in the experiment and [KD] is the affinity of the radioactively labelled ligand for the given receptor. The KD is determined beforehand using the Scatchard curve.

T1 sequence (P37288 whole entry): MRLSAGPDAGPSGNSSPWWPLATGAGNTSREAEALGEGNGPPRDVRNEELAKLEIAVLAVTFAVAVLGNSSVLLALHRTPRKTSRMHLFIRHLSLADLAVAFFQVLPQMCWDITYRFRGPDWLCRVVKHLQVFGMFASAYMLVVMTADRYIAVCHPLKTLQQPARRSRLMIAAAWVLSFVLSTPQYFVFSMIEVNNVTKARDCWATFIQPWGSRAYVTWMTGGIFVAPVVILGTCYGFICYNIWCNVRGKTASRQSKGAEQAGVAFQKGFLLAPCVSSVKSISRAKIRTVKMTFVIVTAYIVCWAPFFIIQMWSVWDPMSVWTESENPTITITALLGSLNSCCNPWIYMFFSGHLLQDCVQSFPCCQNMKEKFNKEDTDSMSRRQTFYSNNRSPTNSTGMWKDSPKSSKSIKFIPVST

`CC(C)(C)OC(=O)NC1Cc2cc(C(F)(F)F)ccc2-n2c(nnc2[C@H]2CC[C@H](Oc3ccccn3)CC2)C1` (stereo partly drawn) [Example 33, Tert-butyl {1-[trans-4-(pyridin-2-yloxy)cyclohexyl]-8-(trifluoromethyl)-5,6-dihydro-4H-[1,2,4]triazolo[4,3-a][1]benzazepin-5-yl}carbamate] gave an IC50 [1] of 480 nM and a Ki [2] of 111 nM.

`NC1Cc2cc(C(F)(F)F)ccc2-n2c(nnc2[C@H]2CC[C@H](Oc3ccccn3)CC2)C1` (stereo partly drawn) [Example 34, 1-[trans-4-(pyridin-2-yloxy)cyclohexyl]-8-(trifluoromethyl)-5,6-dihydro-4H-[1,2,4]triazolo[4,3-a][1]benzazepine-5-amine hydrochloride] was tested, and the IC50 [1] was 700 nM and the Ki [2] was 52 nM.

`CN(C)C1Cc2cc(C(F)(F)F)ccc2-n2c(nnc2[C@H]2CC[C@H](Oc3ccccn3)CC2)C1` (stereo partly drawn) [Example 35, N,N-dimethyl-1-[trans-4-(pyridin-2-yloxy)cyclohexyl]-8-(trifluoromethyl)-5,6-dihydro-4H-[1,2,4]triazolo[4,3-a][1]benzazepine-5-amine] was tested, and the IC50 [1] was 160 nM and the Ki [2] was 9.7 nM.

Work on `CC(C)NC1Cc2cc(C(F)(F)F)ccc2-n2c(nnc2[C@H]2CC[C@H](Oc3ccccn3)CC2)C1` (stereo partly drawn) [Example 36, N-(propan-2-yl)-1-[trans-4-(pyridin-2-yloxy)cyclohexyl]-8-(trifluoromethyl)-5,6-dihydro-4H-[1,2,4]triazolo[4,3-a][1]benzazepine-5-amine] yielded an IC50 [1] of 610 nM and a Ki [2] of 36 nM.

Work on `Cc1ccc2c(c1)CC(N)Cc1nnc([C@H]3CC[C@H](Oc4ccccn4)CC3)n1-2` (stereo partly drawn) [Example 37, 8-methyl-1-[trans-4-(pyridin-2-yloxy)cyclohexyl]-5,6-dihydro-4H-[1,2,4]triazolo[4,3-a][1]benzazepine-5-amine] yielded an IC50 [1] of 100 nM and a Ki [2] of 7 nM.

`Cc1ccc2c(c1)CC(NC(C)C)Cc1nnc([C@H]3CC[C@H](Oc4ccccn4)CC3)n1-2` (stereo partly drawn) [Example 38, 8-methyl-N-(propan-2yl)-1-[trans-4-(pyridin-2-yloxy)cyclohexyl]-5,6-dihydro-4H-[1,2,4]triazolo[4,3-a][1]benzazepine-5-amine] gave an IC50 [1] of 30 nM and a Ki [2] of 2 nM.

`NC1Cc2cc(Br)ccc2-n2c(nnc2[C@H]2CC[C@H](Oc3ccccn3)CC2)C1` (stereo partly drawn) [Example 39, 8-bromo-1-[trans-4-(pyridin-2-yloxy)cyclohexyl]-5,6-dihydro-4H-[1,2,4]triazolo[4,3-a][1]benzazepine-5-amine] was tested, and the IC50 [1] was 8.3 nM and the Ki [2] was 1.4 nM.

For `CC(C)NC1Cc2cc(Br)ccc2-n2c(nnc2[C@H]2CC[C@H](Oc3ccccn3)CC2)C1` (stereo partly drawn) [Example 40, 8-bromo-N-(propan-2-yl)-1-[trans-4-(pyridin-2-yloxy)cyclohexyl]-5,6-dihydro-4H-[1,2,4]triazolo[4,3-a][1]benzazepine-5-amine], the IC50 [1] was 8.4 nM and the Ki [2] was 0.9 nM.

With `NC1Cc2cc(Cl)ccc2-n2c(nnc2[C@H]2CC[C@H](C(F)(F)F)CC2)C1` (stereo partly shown) [Example 43] the IC50 [1] was 210 nM and the Ki [2] was 88 nM.

With `CC(C)NC1Cc2cc(Cl)ccc2-n2c(nnc2[C@H]2CC[C@H](C(F)(F)F)CC2)C1` (stereo partly drawn) [Example 44, 8-chloro-N-(propan-2-yl)-1-[trans-4-(trifluoromethyl)cyclohexyl]-5,6-dihydro-4H-[1,2,4]triazolo[4,3-a][1]benzazepine-5-amine] the IC50 [1] was 480 nM and the Ki [2] was 26 nM.

`NC1Cc2cc(Br)ccc2-n2c(nnc2[C@H]2CC[C@H](C(F)(F)F)CC2)C1` (stereo partly drawn) [Example 45, 8-bromo-1-[trans-4-(trifluoromethyl)cyclohexyl]-5,6-dihydro-4H-[1,2,4]triazolo[4,3-a][1]benzazepine-5-amine] showed an IC50 [1] of 870 nM and a Ki [2] of 38 nM.

Work on `CC(C)NC1Cc2cc(Br)ccc2-n2c(nnc2[C@H]2CC[C@H](C(F)(F)F)CC2)C1` (stereo partly drawn) [Example 46, 8-bromo-N-(propan-2-yl)-1-[trans-4-(trifluoromethyl)cyclohexyl]-5,6-dihydro-4H-[1,2,4]triazolo[4,3-a][1]benzazepine-5-amine] yielded an IC50 [1] of 410 nM and a Ki [2] of 23 nM.

`O=C1Cc2cc(C(F)(F)F)ccc2-n2c(nnc2[C@H]2CC[C@H](Oc3ccccn3)CC2)C1` [Example 48, 1-[trans-4-(pyridin-2-yloxy)cyclohexyl]-8-(trifluoromethyl)-4H-[1,2,4]triazolo[4,3-a][1]benzazepin-5(6H)-one] was tested, and the IC50 [1] was 340 nM and the Ki [2] was 18 nM.

With `OC1Cc2cc(C(F)(F)F)ccc2-n2c(nnc2[C@H]2CC[C@H](Oc3ccccn3)CC2)C1` (stereo partly drawn) [Example 49, 1-[trans-4-(pyridin-2-yloxy)cyclohexyl]-8-(trifluoromethyl)-5,6-dihydro-4H-[1,2,4]triazolo[4,3-a][1]benzazepin-5-ol] the IC50 [1] was 140 nM and the Ki [2] was 7.5 nM.

Compound `COC1Cc2cc(C(F)(F)F)ccc2-n2c(nnc2[C@H]2CC[C@H](Oc3ccccn3)CC2)C1` (stereo partly drawn) [Example 50, 5-methoxy-1-[trans-4-(pyridin-2-yloxy)cyclohexyl]-8-(trifluoromethyl)-5,6-dihydro-4H-[1,2,4]triazolo[4,3-a][1]benzazepine] has an IC50 [1] of 20 nM and a Ki [2] of 2.7 nM.

`FC(F)(F)c1ccc2c(c1)CC(OCC1CC1)Cc1nnc([C@H]3CC[C@H](Oc4ccccn4)CC3)n1-2` (stereo partly drawn) [Example 51, 5-(cyclopropylmethoxy)-1-[trans-4-(pyridin-2-yloxy)cyclohexyl]-8-(trifluoromethyl)-5,6-dihydro-4H-[1,2,4]triazolo[4,3-a][1]benzazepine] gave an IC50 [1] of 55 nM and a Ki [2] of 7.6 nM.

In the case of `CC(C)(C)[Si](C)(C)OC1Cc2cc(Cl)ccc2-n2c(nnc2[C@H]2CC[C@H](Oc3ccccn3)CC2)C1` (stereo partly drawn) [Example 52, 5-{[tert-butyl(dimethyl)silyl]oxy}-8-chloro-1-[trans-4-(pyridin-2-yloxy)cyclohexyl]-5,6-dihydro-4H-[1,2,4]triazolo[4,3-a][1]benzazepine], the IC50 [1] is reported as 60 nM and the Ki [2] is reported as 11 nM.

Compound `Clc1ccc2c(c1)CC(OCC1CC1)Cc1nnc([C@H]3CC[C@H](Oc4ccccn4)CC3)n1-2` (stereo partly drawn) [Example 59, 5-(Cyclopropylmethoxy)-8-chloro-1-[trans-4-(pyridin-2-yloxy)cyclohexyl]-5,6-dihydro-4H-[1,2,4]triazolo[4,3-a][1]benzazepine] has an IC50 [1] of 2.5 nM and a Ki [2] of 0.8 nM.

In the case of `O=C1Cc2cc(Br)ccc2-n2c(nnc2[C@H]2CC[C@H](Oc3ccccn3)CC2)C1` [Example 64], the IC50 [1] is reported as 1.1 nM and the Ki [2] is reported as 0.5 nM.

`OC1Cc2cc(Br)ccc2-n2c(nnc2[C@H]2CC[C@H](Oc3ccccn3)CC2)C1` (stereo partly drawn) [Example 65, 8-bromo-1-[trans-4-(pyridin-2-yloxy)cyclohexyl]-5,6-dihydro-4H-[1,2,4]triazolo[4,3-a][1]benzazepin-5-ol] was tested, and the IC50 [1] was 1 nM and the Ki [2] was 0.5 nM.

Work on `CN(C)[C@H]1Cc2cc(Cl)ccc2-n2c(nnc2[C@H]2CC[C@H](Oc3ccccn3)CC2)C1` [Example 67] yielded an IC50 [1] of 2.3 nM and a Ki [2] of 0.6 nM.

Compound `CC(=O)N[C@H]1Cc2cc(Cl)ccc2-n2c(nnc2[C@H]2CC[C@H](Oc3ccccn3)CC2)C1` [Example 68, (5S)—N-{8-chloro-1[trans-4-(pyridin-2-yloxy)cyclohexyl]-5,6-dihydro-4H-[1,2,4]triazolo[4,3-a][1]benzazepin-5-yl}acetamide] has an IC50 [1] of 33 nM and a Ki [2] of 9.4 nM.

Compound `Clc1ccc2c(c1)CC1(Cc3nnc([C@H]4CC[C@H](CN5CCCCC5)CC4)n3-2)OCCO1` [Example 69, 8′-chloro-1′-[trans-4-(piperidin-1-ylmethyl)cyclohexyl]-4′H,6′H-spiro[1,3-dioxolane-2,5′-[1,2,4]triazolo[4,3-a][1]benzazepine]] has an IC50 [1] of 139 nM and a Ki [2] of 10 nM.

Source: patent publication US11298363B2, “Triazolobenzazepines as vasopressin V1a receptor antagonists” (RICHTER GEDEON NYRT., priority 2017, dated 2022)
